# PubChem BioAssay AID1223 (NMMLSC, 2008)
# Active and inactive are the calls of the source.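 Rule for the calls: active = total score of at least 50 of 100, built from tracer displacement at 10 µM, potency and curve span; inactive = total score under 50.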
# Target: Estrogen receptor (Homo sapiens) (UniProt P03372)
# Assay: fluorescent estrogen displacement from ERalpha – cell-based, Cos7 ERalpha-GFP, flow cytometry, dose response (AID 1223)
# Details: E2-Alexa633 competitive binding
# Sequence of Estrogen receptor (Homo sapiens) (P03372 whole entry, looked up): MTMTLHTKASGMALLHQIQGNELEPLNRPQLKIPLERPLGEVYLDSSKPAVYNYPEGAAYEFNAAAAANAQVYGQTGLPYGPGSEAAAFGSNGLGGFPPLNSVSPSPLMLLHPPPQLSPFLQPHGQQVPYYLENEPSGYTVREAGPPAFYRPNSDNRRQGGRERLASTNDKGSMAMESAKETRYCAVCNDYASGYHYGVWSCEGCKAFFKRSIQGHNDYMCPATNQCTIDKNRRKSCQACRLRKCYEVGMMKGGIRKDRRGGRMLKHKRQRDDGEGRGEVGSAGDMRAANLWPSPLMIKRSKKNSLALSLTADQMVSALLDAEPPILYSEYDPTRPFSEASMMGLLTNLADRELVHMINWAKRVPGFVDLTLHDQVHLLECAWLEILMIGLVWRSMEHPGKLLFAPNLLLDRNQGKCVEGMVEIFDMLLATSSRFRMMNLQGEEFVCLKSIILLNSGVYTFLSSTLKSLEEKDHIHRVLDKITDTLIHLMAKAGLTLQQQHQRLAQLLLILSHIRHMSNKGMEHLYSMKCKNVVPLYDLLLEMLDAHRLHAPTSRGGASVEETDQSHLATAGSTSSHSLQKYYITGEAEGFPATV
row,Structure (SMILES),EC50
1,CCn1c(=NC(=O)c2ccc(N3C(=O)CCC3=O)cc2)sc2c(OC)ccc(OC)c21,> 10 µM (inactive)

# Same assay, conditions: E2-Alexa633 competitive binding, at 10 µM (top of the series)
row,Structure (SMILES),fluorescent ligand binding remaining
1,Nc1ccc(-c2nc3ccc([N+](=O)[O-])cc3[nH]2)cc1,63.9%
2,CC(=O)c1ccc2c(c1)C1C=CCC1C(c1ccc(S(=O)(=O)N3CCOCC3)cc1)N2 (stereo unspecified),inactive
3,CCC(=O)Oc1ccc(/C(CC)=C(\CC)c2ccc(OC(=O)CC)cc2)cc1,22.8%
4,Cc1ccc(-n2c(=O)c(C#N)cc3c(=O)n4cccc(C)c4nc32)cc1,inactive
5,O=C(O)c1ccc2c(c1)C1C(Cl)C(Sc3ccccc3[N+](=O)[O-])CC1C(c1cccc([N+](=O)[O-])c1)N2 (stereo unspecified),inactive
6,CC(=O)Nc1ccc(OC(=O)CC2SC(=O)NC2=O)cc1 (stereo unspecified),inactive
7,Cc1ccc(C(=O)N/N=C/c2ccc([N+](=O)[O-])s2)cc1,inactive
8,CCC(=O)Oc1ccc(C(CC)C(CC)c2ccc(OC(=O)CC)cc2)cc1 (stereo unspecified),19.9%
9,O=C1/C(=C\c2ccco2)SC(=S)N1c1ccc(O)cc1,inactive
10,CCn1nnc(NC(=O)CSc2ccc(Cl)cc2)n1,68.5%
11,CCc1ccc(-c2nn(-c3ccccc3)cc2CSC(=N)N)cc1,inactive
12,O=C(Cc1cccs1)Nc1ccc(S(=O)(=O)Nc2ncccn2)cc1,inactive
13,COc1ccc(NC(=O)C(c2ccccc2)N(C)C(=O)c2ccc(=O)[nH]c2)cc1 (stereo unspecified),50.7%
14,Cc1nn(-c2ccccc2)c(/N=C/c2ccc(O)cc2)c1-c1ccccc1,inactive
15,CCCCCCNC(=O)c1cc(-c2ccco2)nc2ccccc12,inactive
16,C[C@]12CC[C@@H]3c4ccc(O)cc4C(=O)C[C@H]3[C@@H]1CC[C@@H]2O,inactive
17,O=C1NC(c2ccc(Br)cc2)Nc2sc3c(c21)CCC3 (stereo unspecified),inactive

row,Structure (SMILES),fluorescent ligand binding remaining
1,C/C=C(/C(=C/C)c1ccc(O)cc1)c1ccc(O)cc1,inactive
2,CCCCOC(=O)c1c(C)oc2ccc(NS(=O)(=O)c3ccc4c5c(cccc35)C(=O)N4)cc12,inactive
3,Nc1ncnc2c1ncn2C1CCC(CO)C(O)C1 (stereo unspecified),inactive
4,COc1cccc(C2Nc3c(F)cc(Br)cc3C3C=CCC32)c1OC (stereo unspecified),inactive
5,O=C(c1cc2ncc(Br)cn2n1)N1CCN(C(=O)c2ccco2)CC1,inactive
6,C[C@H]1CCC[C@@H](O)CCC/C=C/c2cc(O)cc(O)c2C(=O)O1,inactive
7,Cc1cc(-c2nn3c(-c4ccccc4)nnc3s2)c2ccccc2n1,inactive
8,Cc1cc([N+](=O)[O-])c2c(c1C)C1C=CCC1C(c1ccccn1)N2 (stereo unspecified),27.9%
9,Cc1oc2cc(O)ccc2c(=O)c1Oc1ccccc1,42%
10,O=S(=O)(NCCc1csc(-c2cccnc2)n1)c1ccc(Cl)s1,inactive
11,Oc1ccc(-c2nc3ccc4ccccc4c3c3c2CCC3)cc1O,inactive
12,CCNC(=O)c1ccc2c(c1)C1C3CCC(C3)C1C(c1ccccc1)N2 (stereo unspecified),inactive
13,Oc1ccc(-c2nc(-c3ccc(O)c(O)c3)cs2)cc1,inactive
14,N=C1C(c2nc3ccccc3[nH]2)=C(O)CN1c1ccc(CC(=O)O)cc1,inactive
15,COc1ccc(/C=N/NC(=O)c2nc(-c3ccccc3)cc(-c3ccccc3)n2)cc1O,44.4%
16,Cc1cc(C)c2c(c1)NC(c1cc3c(cc1Br)OCO3)C1CC=CC21 (stereo unspecified),inactive
17,CCc1nc2sc3ccccc3c(=O)c2c(=O)n1Cc1ccco1,inactive

# Same assay, conditions: E2-Alexa633 competitive binding, at 100 µM (top of the series)
row,Structure (SMILES),fluorescent ligand binding remaining
1,O=C(O)c1ccc([N+](=O)[O-])c2c1NC(c1ccccc1)C1CC=CC21 (stereo unspecified),inactive
